From US7989466B2, “Methods to inhibit or augment an inflammatory response” (Cambridge Enterprise Limited, priority 1999, dated 2011) come the findings set out here.

Structures are written as SMILES.

Test [1] relates to RANTES induced THP-1 migration. Nature of the test: THP-1 trans-well migration assay, RANTES as chemoattractant. As to conditions: Homo sapiens, THP-1; read-out: ED50, RANTES chemotaxis assay. The format is cell-based, human. Here is the method:
To determine whether an agent inhibits a chemokine-induced activity, such as macrophage recruitment, varying amounts of the agent are mixed with cells in the presence of a known chemoattractant. For example, a range of known concentrations of an agent, e.g., a chemokine peptide, is incubated with a defined number (e.g., 10^4-10^6) of human THP-1 monocyte cells in individual wells of the top compartment of a trans-well plate. Chemokine (such as MCP-1, MIP1α, IL8 or SDF-1α), at a concentration known to cause significant migration of THP-1 cells in the trans-well migration assay, is placed in the lower compartment (FIG. 1). […] A standard curve consisting of a two-fold dilution series of THP-1 cells (in 29 μl) is prepared to accurately quantify the number of cells that have migrated. […] Absorbance of converted dye is measured at a wavelength of 595 nm using an ELISA plate reader. The number of migrated cells in each well is then determined by interpolation of the standard curve (see also Imai et al., J. Biol. Chem., 272, 15036 (1997)). […]
After incubation, the cells were gently removed from the top of the filter with a pipette, 20 μl of 20 mM EDTA in PBS was added into each top well, and the mixture was incubated for 20 minutes at 4° C. […] A standard curve was prepared to accurately quantify the number of THP-1 cells that had migrated. […]

The target of test [2] is T1, short splice variant D2 dopamine receptor (Homo sapiens, UniProt P14416).
T1 construct: purchased RBI/Sigma D-179
Nature of the test: Dopamine receptor membrane binding (3H-Spiperone). As to conditions: 100 μM highest concentration tested; read-out: ED50 for competition of spiperone binding to short splice variant D2 dopamine receptor. On the procedure: For dopamine receptor binding, membranes (D-179, RBI/Sigma) are diluted into binding buffer (75 mM Tris pH 7.4, 12.5 mM MgCl2 and 2 mM EDTA). For example, 10 μl of membranes are diluted in 500 μl of binding buffer (i.e., 1:50 dilution), which is aliquoted into labelled tubes. Cold competitor or test competitor is added, (e.g., 5 μl of 100× stock solution; 5 μl of 1 mM haloperidol solution (H-100, RBI/Sigma in DMSO). Radioligand is then added (3H-Spiperone, TRK 818, Amersham, 250 μCi in 250 μl, 10.5 μM at 95 Ci/mmol). For competition studies, 0.5 nM is used. A 100× stock (i.e., 50 nM) is made by diluting the commercial stock 1:210 in binding buffer, and 5 μl is added to every tube. Control tubes have radioligand but no membranes. The mixtures are vortexed, then spun very briefly. The mixtures are then incubated for 1 hour at 27° C. in a water bath. The mixture is filtered through GF/C filters over a vacuum. Each filter is pre-soaked in polyethyleneimine (0.3% in water; add 1 ml of 10% stock (P-261; RBI/Sigma) to 33 ml of MilliQ water). The tubes are washed with 2-3 ml of wash buffer (50 mM Tris pH 7.4) and the wash filtered. The filters are then rinsed with 3×5 ml of wash buffer, air dried, placed in a scintillation vial and 4.5 ml of scintillant added. The activity on the filter is then determined.

T1 sequence (P14416 1-414 isoform P14416-2): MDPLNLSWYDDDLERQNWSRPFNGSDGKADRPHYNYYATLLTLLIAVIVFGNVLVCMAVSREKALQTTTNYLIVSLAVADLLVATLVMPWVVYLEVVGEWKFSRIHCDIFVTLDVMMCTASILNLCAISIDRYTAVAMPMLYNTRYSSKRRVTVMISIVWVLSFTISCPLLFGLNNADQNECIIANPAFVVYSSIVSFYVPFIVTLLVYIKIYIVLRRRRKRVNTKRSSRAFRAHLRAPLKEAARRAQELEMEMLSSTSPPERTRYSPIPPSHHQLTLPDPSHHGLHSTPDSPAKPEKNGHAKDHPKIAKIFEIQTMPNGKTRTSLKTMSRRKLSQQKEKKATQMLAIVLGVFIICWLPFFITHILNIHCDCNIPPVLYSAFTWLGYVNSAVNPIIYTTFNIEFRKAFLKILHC

Take `C=CCCCCCCCCC(=O)N[C@H]1CCC(=O)NC1=O` [A-I (NR58.4), [3S]-3-(undec-10-enoylamino)piperidine-2,6-dione]: the EC50 in test [1] was 0.3 nM; in test [2], more than 100000 nM.
